The source of these data is PubChem BioAssay (NCI).

Test systems include ACHN renal; CAKI-1 renal; HT29 colon; M14 melanoma; NCI-H460 lung; SK-MEL-2 melanoma; SR leukemia; UO-31 renal; SK-MEL-28 melanoma.
Holding throughout (experiment): NCI-60 cell line screen, 48 h

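Where inhibition never reached the appropriate level, the endpoint shown equals the highest concentration tested. Otherwise, values were interpolated linearly from a five-concentration, 48-hour dose response in 96-well plates. Abbreviation: GI50, concentration required for 50% inhibition of growth. Definition used: TGI = concentration required for complete inhibition of growth.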 Where only a bound is given, the exact number is not on record here.

Regarding `O=C1c2ccccc2C(=O)N1C/C=N/NS(=O)(=O)c1cccc([N+](=O)[O-])c1`, the TGI in the test on ACHN renal, in the test on CAKI-1 renal, in the test on HT29 colon, in the test on M14 melanoma, in the test with NCI-H460 lung and in the test with SK-MEL-2 melanoma was over 100 µM each time. Besides, the TGI in the test with SR leukemia and in the test on UO-31 renal was over 100 µM each time.
On to `CN(c1ccccc1)c1nc(=[N+](C)C)ss1`, for which the TGI with ACHN renal, in the test on CAKI-1 renal, in the test with HT29 colon, in the test with M14 melanoma, in the test with NCI-H460 lung and in the test on SK-MEL-2 melanoma was over 100 µM each time. Also, the TGI in the test on SK-MEL-28 melanoma and in the test with UO-31 renal was over 100 µM throughout.
In the case of `O=c1c2ccccc2c(=O)n2n1-c1cccc(c1)CSSCc1cccc-2c1`, the GI50 in the test on ACHN renal, in the test with CAKI-1 renal, in the test with SK-MEL-2 melanoma, in the test with SK-MEL-28 melanoma, with SR leukemia and in the test on UO-31 renal was over 100 µM in each case. Moreover, the TGI with ACHN renal, with CAKI-1 renal, in the test on SK-MEL-2 melanoma, in the test with SK-MEL-28 melanoma, in the test on SR leukemia and in the test on UO-31 renal was over 100 µM in each case.
Turning to `CCC(=O)N1C(=S)SC[C@H]1C(=O)OC`, the TGI in the test on ACHN renal, in the test with CAKI-1 renal, with HT29 colon, in the test on M14 melanoma, in the test on SK-MEL-28 melanoma and with SR leukemia was over 100 µM in each case. In the test with UO-31 renal, this compound registered a TGI of over 100 µM.
In the case of `Nc1nc(N)c2cc(S(=O)(=O)c3cccc(C(F)(F)F)c3)ccc2n1`, the GI50 was 4.43 µM in the test with ACHN renal; over 100 µM with CAKI-1 renal; 2.42 µM with HT29 colon; 2 µM in the test on M14 melanoma; 0.575 µM in the test on NCI-H460 lung; 11 µM in the test on SK-MEL-2 melanoma. Further, the GI50 in the test on SK-MEL-28 melanoma is 85.1 µM; in the test with UO-31 renal, 4.96 µM. Further, the TGI in the test with ACHN renal was over 100 µM; in the test on CAKI-1 renal it was over 100 µM; in the test on HT29 colon, over 100 µM; with M14 melanoma, over 100 µM; in the test with NCI-H460 lung, over 100 µM; in the test with SK-MEL-2 melanoma, 73.2 µM. Also, the TGI in the test with SK-MEL-28 melanoma and with UO-31 renal was over 100 µM throughout.
As to `CCN(CC)CC(C(=O)Nc1c(C)cccc1C)/C(C)=N\NC(=S)NN` (centres undefined), the TGI in the test with ACHN renal, in the test on HT29 colon, with M14 melanoma, in the test with NCI-H460 lung, in the test on SK-MEL-2 melanoma and in the test on SK-MEL-28 melanoma was over 100 µM in each case. In the test with UO-31 renal, this compound returned a TGI of over 100 µM.
Turning to `O=C1C2C3SC(c4cc5ccccc5cc43)C2C(=O)N1c1ccccc1` (centres undefined), the TGI in the test with ACHN renal, in the test on CAKI-1 renal, in the test on HT29 colon, with M14 melanoma, in the test on SK-MEL-2 melanoma and with SK-MEL-28 melanoma was over 100 µM each time. In addition, the TGI in the test with UO-31 renal is over 100 µM.
Turning to `CCOc1ccc2c(c1)[n+]([O-])c(-c1ccccc1)c(N)[n+]2[O-]`, the TGI in the test on ACHN renal was over 100 µM; in the test on CAKI-1 renal, 89.4 µM; with HT29 colon it was over 100 µM; with M14 melanoma, over 100 µM; in the test with NCI-H460 lung, over 100 µM; with SK-MEL-2 melanoma it was over 100 µM. The TGI with SK-MEL-28 melanoma and with UO-31 renal was over 100 µM in each case.
`O=S1(=O)[C@H](c2ccccc2)c2c(-c3ccccc3)sc(-c3ccccc3)c2[C@@H]1c1ccccc1`: the TGI in the test with ACHN renal, in the test on CAKI-1 renal, in the test on HT29 colon, with M14 melanoma, in the test on NCI-H460 lung and in the test on SK-MEL-2 melanoma was over 100 µM in each case. The TGI in the test with SK-MEL-28 melanoma and in the test on UO-31 renal was over 100 µM throughout.
Take `O=C(O)c1ccccc1NS(=O)(=O)c1ccc(Cl)cc1`: the TGI in the test on ACHN renal, with CAKI-1 renal, with HT29 colon, in the test on M14 melanoma, with NCI-H460 lung and in the test on SK-MEL-2 melanoma was over 100 µM in each case. Also, the TGI in the test on SK-MEL-28 melanoma and in the test with UO-31 renal was over 100 µM throughout.
With `CC1COS(=O)N1c1ccccc1` (centres undefined), the TGI with ACHN renal, in the test with HT29 colon, in the test on M14 melanoma, in the test with NCI-H460 lung, in the test with SK-MEL-2 melanoma and in the test on SK-MEL-28 melanoma was over 100 µM each time. In addition, the TGI with UO-31 renal was over 100 µM.
Turning to `O=C1CN=C(c2ccccc2)c2ccncc2N1`, the TGI in the test on ACHN renal, in the test on CAKI-1 renal, with HT29 colon, in the test on M14 melanoma, in the test on SK-MEL-2 melanoma and with SK-MEL-28 melanoma was over 100 µM throughout. Besides, the TGI with SR leukemia and with UO-31 renal was over 100 µM each time.
